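Grown in 96-well plates, cells were treated for 48 hours with each compound at five concentrations. Insufficient inhibition: endpoint recorded as highest concentration tested. At the GI50, growth is halved. TGI is the concentration that stops growth completely.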
Columns and labels:
Assay in all cases: inhibition of tumour cell growth, NCI panel, 48 h
[1] = test system: RXF 393 renal
[2] = test system: CAKI-1 renal
[3] = test system: IGROV1 ovarian
[4] = test system: HCC-2998 colon
[5] = test system: OVCAR-5 ovarian
[6] = test system: SF-295 CNS
[7] = test system: MDA-MB-231 breast
[8] = test system: SNB-19 CNS
[9] = test system: HCT-116 colon
[10] = test system: COLO 205 colon

Structure (SMILES)	TGI [1] [µM]	TGI [2] [µM]	GI50 [3] [µM]	TGI [3] [µM]	TGI [4] [µM]	TGI [5] [µM]	TGI [6] [µM]	GI50 [7] [µM]	TGI [7] [µM]	TGI [8] [µM]	TGI [9] [µM]	TGI [10] [µM]
COc1ccc2c(c1)/C(=C\c1cccc(/C=C3/C(=O)Nc4ccc(OC)cc43)n1)C(=O)N2	2.89	5.62	2.2	> 100	3.58	3.74	30.3	0.873	4.78	3.38	1.29	2.04
O=C(/C=C\c1ccccc1-c1ccccc1)c1ccccc1	> 100	> 100	–	> 100	> 100	> 100	> 100	–	> 100	–	> 100	> 100
O=c1[nH]n(Cc2ccccc2CCl)c2ccc([N+](=O)[O-])cc12	> 100	63.3	–	> 100	42.4	> 100	> 100	–	> 100	> 100	> 100	62.5
COc1ccc(/C=C/[N+](=O)[O-])cc1	–	–	–	11.3	2.73	50.8	7.7	–	55.3	12.7	> 100	> 100
CC(C)N1CCCOC(c2ccc([N+](=O)[O-])cc2)O1 (stereo unspecified)	> 100	> 100	–	> 100	> 100	> 100	> 100	–	> 100	–	> 100	> 100
COc1ccc(-c2cc(-c3ccco3)c(C#N)c(=S)n2C2OC(CO)C(O)C(O)C2O)cc1 (stereo unspecified)	> 100	> 100	–	> 100	> 100	> 100	> 100	–	> 100	> 100	> 100	> 100
O=C1c2ccccc2C(=O)c2c(O)c(O)cc(O)c21	85.4	> 100	–	> 100	85.6	> 100	> 100	–	–	> 100	77.1	> 100
CCCCCNC1=CC(=O)c2ccccc2C1=O	47.3	80.6	–	> 100	> 100	> 100	> 70.3	–	44.3	82.5	> 61.7	> 100
CCn1c(SCC(=O)NNC(=S)Nc2ccc(F)cc2)nc2ccccc2c1=O	> 100	–	–	> 100	> 100	> 100	> 100	–	> 100	> 100	> 100	> 100
Nc1nncs1	> 5000	> 4630	–	> 4680	> 5000	> 4450	> 5000	–	> 5000	> 5000	> 5000	> 3840
O=c1c2c3c(sc2nc2n1N=CN(c1ccc(Cl)cc1)C2)CCCC3	> 100	> 100	–	> 100	72	> 100	> 100	–	> 100	> 100	> 100	> 100
C(/C=N/NC1=NCCCN1)=N\NC1=NCCCN1	–	> 100	–	> 100	> 100	> 100	–	–	> 100	> 100	> 100	> 100
CC(CCC(=O)O)[C@H]1CCC2[C@H]3C(CC(=O)[C@@]21C)[C@@]1(C)CCC(O)C[C@H]1C[C@@H]3O (stereo partly specified)	> 100	> 100	–	> 100	> 100	> 100	–	–	> 100	> 100	> 100	> 100
CN1CCN(C(=S)N(C)C(=O)c2cccs2)CC1	> 100	–	–	> 100	> 100	> 100	> 100	–	> 100	> 100	–	> 100
COC(=O)/C(=C/CC(N=C(c1ccccc1)c1ccccc1)C(=O)OC)N=C(c1ccccc1)c1ccccc1 (stereo unspecified)	> 100	> 100	–	> 100	> 100	–	> 100	–	–	> 100	> 100	> 100
Cc1ccnc2nc3[nH]c4ccccc4c3cc12	> 100	> 100	–	> 100	> 100	> 100	> 100	–	> 100	–	> 100	> 100
Nc1ccc(C(=O)NN2C(=O)C(Cl)C2c2ccccc2O)cc1 (stereo unspecified)	–	> 100	–	> 100	98.5	> 100	> 100	–	–	> 100	> 100	> 100
Cc1cc2nc3c(C#N)c(-c4ccccc4)cc(Nc4ccc(F)cc4)n3c2cc1C	61.3	> 100	–	–	–	45.2	76.2	–	51.1	–	> 100	> 100
O=C(/C=C/c1cccs1)c1ccc(C(=O)/C=C/c2cccs2)cc1	–	> 100	–	> 100	> 100	> 100	> 100	–	> 100	> 100	–	> 100
C=C1CC(COc2ccc3ccc(=O)oc3c2)(c2ccccc2)OC1=O (stereo unspecified)	–	2.52	–	3.36	2.48	13	20.7	–	6.88	28.5	2	1.79
CC1(C)OC(=O)CC12CCN(Cc1ccccc1)CC2	> 100	> 100	–	> 100	–	> 100	> 100	–	> 100	> 100	> 100	> 100
Cc1n[nH]c(=O)n1/N=C/c1cccnc1	–	> 100	–	> 100	> 100	> 100	> 100	–	> 100	> 100	> 100	> 100
O=S1(=O)OCCCOS(=O)(=O)C1Br	> 100	> 100	–	–	> 100	> 100	> 100	–	–	> 100	> 100	> 100
CCOC(=O)c1c(NC(=O)c2ccc(OC)cc2)sc2c1CCCC2	> 100	> 100	–	> 100	–	> 100	> 100	–	> 100	> 100	> 100	> 100

Structure (SMILES)	TGI [1] [µM]	TGI [2] [µM]	GI50 [3] [µM]	TGI [3] [µM]	TGI [4] [µM]	TGI [5] [µM]	TGI [6] [µM]	GI50 [7] [µM]	TGI [7] [µM]	TGI [8] [µM]	TGI [9] [µM]	TGI [10] [µM]
CC1(C)N=C(N)N=C(N)N1c1cccc(OCc2cccc([N+](=O)[O-])c2)c1	> 100	> 100	–	> 100	–	> 100	> 100	–	> 100	> 100	> 100	> 100
CSc1ccc(-c2cc(-c3nc4ccccc4[nH]3)nc3[nH]c(-c4nc5ccccc5[nH]4)cc(=O)c23)cc1	> 100	> 100	–	> 100	42.7	> 100	> 100	–	–	> 100	> 100	> 100
CCOC(=O)C1C(c2ccc([N+](=O)[O-])cc2)NC(c2ccc([N+](=O)[O-])cc2)C(C(=O)OC)S1(=O)=O (stereo unspecified)	> 100	> 100	–	> 100	> 100	> 100	> 100	–	–	> 100	> 100	> 100
COc1cc(CCCC(O)COc2cccc3c2C2(O)CCCCCC32)cc(OC)c1 (stereo unspecified)	43.2	44.4	–	28.5	17.9	31.5	30.5	–	–	32	31.5	5.4
CC(C)N(c1cc2c(cc1F)c(=O)c(C(=O)O)cn2-c1ccc(N2CCN(C)CC2)cn1)C(C)C	> 100	> 100	–	> 100	–	> 100	> 100	–	> 100	> 100	> 100	> 100
COc1ccc(C(CC(=O)c2ccccc2)C(=O)c2ccc3c(c2)OCO3)cc1 (stereo unspecified)	–	> 100	–	> 100	> 100	–	> 100	–	> 100	> 100	–	> 100
COc1ccc(-n2cnc3c(NC(C)(C)C(=O)O)ncnc32)cc1	–	> 100	–	> 100	> 100	> 100	> 100	–	> 100	> 100	> 100	> 100
COc1cc(/C=N/NC2=NCCCN2)ccc1O	> 100	–	–	> 100	> 100	> 100	> 100	–	> 100	> 100	> 100	> 100
O=C1CCSc2c(cnc3ccccc23)N1	> 100	> 100	–	> 100	–	> 100	> 100	–	> 100	–	> 100	> 100
COc1ccc(N2C(=O)/C(=C\c3cc(OC)c(OC)c(OC)c3)S(=O)(=O)C2c2ccccc2)cc1 (stereo unspecified)	> 100	> 100	–	–	> 100	–	> 100	–	> 100	> 100	> 100	41.6
Cc1ccc(S(=O)(=O)n2cnc(CC(NC(=O)C3CCC(=O)N3C(=O)OCc3ccccc3)C(=O)N3CCCC3C(=O)NN)c2)cc1 (stereo unspecified)	–	–	–	> 100	> 100	> 100	–	–	> 100	> 100	> 100	> 100
CN(CCO)c1nc2c(c(=O)[nH]1)CNCC2	> 100	> 100	–	> 100	> 100	> 100	> 100	–	–	> 100	> 100	> 100
COc1ccc(CCN(C)C(=O)CC(C#N)(c2ccccc2)c2ccc(OC)c(OC)c2)cc1OC (stereo unspecified)	> 100	> 100	–	> 100	–	> 100	> 100	–	> 100	> 100	> 100	> 100
C=CC1(c2ccc(Br)cc2)OCCCO1	> 100	–	–	> 100	> 100	> 100	> 100	–	> 100	> 100	> 100	> 100
COC(=O)/C=C(\S/C(=C(/c1ccc(OC)cc1)n1cc(C(=O)OC)c(C(=O)OC)n1)c1ccc(OC)cc1)C(=O)OC	29.4	6.41	–	22.5	–	69.7	> 100	–	> 100	> 100	31.3	8.64
COC(=O)c1cc(C#N)[nH]c1-c1cccs1	86.1	> 100	–	–	> 100	> 100	> 100	–	> 100	> 100	> 100	> 100
CCOC(=O)Oc1cc2c(ccn2C)c2c1c1ccccc1n2C(=O)OCC	> 100	> 100	–	> 100	–	> 100	> 100	–	> 100	–	> 100	> 100
N#CC1=C(N)Nc2nc3ccccc3n2C1c1ccccc1 (stereo unspecified)	56.3	> 100	–	> 100	–	> 100	> 100	–	> 100	> 100	> 100	> 100
O=C(Nc1ccccc1)C(=O)C(C(=O)c1ccccc1)C(c1ccccc1)c1ccccc1 (stereo unspecified)	> 10	> 10	–	> 10	> 10	–	> 10	–	> 10	–	–	> 10
C=CC(c1ccccc1)C1(O)c2cccc(O)c2C(=O)c2c(O)cccc21 (stereo unspecified)	29.1	42.5	–	32.6	22.9	54.2	40.4	–	36.7	–	24.7	–
N=C(N)C1CN(CC=O)C(=O)NC1=O (stereo unspecified)	–	–	–	> 100	> 100	> 100	> 100	–	> 100	> 100	> 100	> 100
O=C1/C(=C/c2ccccc2)CCCC/C1=C\c1ccccc1	59.5	> 100	–	> 100	> 100	97.1	> 100	–	–	> 100	> 100	> 100
CC1=[N+]([O-])C(C)(C)N(O)C1(C)C	> 100	–	–	> 100	> 100	> 100	> 100	–	> 100	> 100	> 100	> 100
